Measurements published in PMC5513037, “Examining the influence of specificity ligands and ATP-competitive ligands on the overall effectiveness of bivalent kinase inhibitors” (Proteome Science, 2017).

Experiments:
Assay in all cases: KAM-matrix competition in K562 lysate;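 for 0.001 uM KAM: median log10 fold change of treatment over DMSO control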;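 for 0.01 uM KAM: median log10 fold change of treatment over DMSO control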;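 for 0.1 uM KAM: median log10 fold change of treatment over DMSO control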;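 for 1 uM KAM: median log10 fold change of treatment over DMSO control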;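 for 10 uM KAM: median log10 fold change of treatment over DMSO control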
Assay type in all cases: binding
[1] = molecular target: T1, NEK1 (Homo sapiens, UniProt Q96PY6)
T1 construct: endogenous in cells; host or cells: K562
T1 sequence (Q96PY6 1-1258): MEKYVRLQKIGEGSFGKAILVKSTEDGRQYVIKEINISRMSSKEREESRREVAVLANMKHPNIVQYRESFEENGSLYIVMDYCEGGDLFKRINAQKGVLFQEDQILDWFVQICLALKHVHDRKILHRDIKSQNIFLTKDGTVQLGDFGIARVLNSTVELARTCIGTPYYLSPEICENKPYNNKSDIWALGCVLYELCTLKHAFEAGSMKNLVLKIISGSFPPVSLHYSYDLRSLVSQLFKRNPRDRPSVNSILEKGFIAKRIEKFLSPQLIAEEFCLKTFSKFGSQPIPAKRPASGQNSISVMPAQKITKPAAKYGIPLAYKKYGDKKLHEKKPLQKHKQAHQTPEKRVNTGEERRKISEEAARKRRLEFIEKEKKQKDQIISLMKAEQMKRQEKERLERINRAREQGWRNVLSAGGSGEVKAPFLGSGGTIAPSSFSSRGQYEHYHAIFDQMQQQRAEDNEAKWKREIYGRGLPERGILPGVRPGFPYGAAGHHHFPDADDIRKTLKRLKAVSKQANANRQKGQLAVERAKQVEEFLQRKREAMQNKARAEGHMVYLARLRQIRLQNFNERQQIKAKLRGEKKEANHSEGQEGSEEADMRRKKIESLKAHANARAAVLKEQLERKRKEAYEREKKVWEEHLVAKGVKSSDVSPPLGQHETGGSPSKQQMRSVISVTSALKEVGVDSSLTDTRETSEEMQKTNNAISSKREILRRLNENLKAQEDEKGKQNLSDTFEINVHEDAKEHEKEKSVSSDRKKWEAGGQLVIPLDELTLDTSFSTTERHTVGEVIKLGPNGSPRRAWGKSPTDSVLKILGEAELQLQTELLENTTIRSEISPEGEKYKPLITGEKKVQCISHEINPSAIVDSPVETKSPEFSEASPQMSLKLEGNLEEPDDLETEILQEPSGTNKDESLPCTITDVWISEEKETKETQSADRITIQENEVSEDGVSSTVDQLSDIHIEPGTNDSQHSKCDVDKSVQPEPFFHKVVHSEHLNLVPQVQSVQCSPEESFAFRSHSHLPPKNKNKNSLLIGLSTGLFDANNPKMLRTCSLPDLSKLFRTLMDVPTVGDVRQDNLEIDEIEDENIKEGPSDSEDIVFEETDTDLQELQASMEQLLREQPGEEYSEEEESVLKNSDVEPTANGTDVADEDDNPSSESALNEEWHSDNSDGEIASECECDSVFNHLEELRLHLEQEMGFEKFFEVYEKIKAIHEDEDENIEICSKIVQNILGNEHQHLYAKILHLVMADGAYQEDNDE
Procedure: (§1) Supplement 12953_2017_125_MOESM1_ESM.zip/MS_Supp Info.xlsx, sheet "KAM" | column: 10 uM KAM; 1 uM KAM; 0.1 uM KAM; 0.01 uM KAM; 0.001 uM KAM; RB50

[2] = molecular target: T2, MAPK8 (Homo sapiens, UniProt P45983)
T2 construct: endogenous in cells; host or cells: K562
T2 sequence (P45983 whole entry): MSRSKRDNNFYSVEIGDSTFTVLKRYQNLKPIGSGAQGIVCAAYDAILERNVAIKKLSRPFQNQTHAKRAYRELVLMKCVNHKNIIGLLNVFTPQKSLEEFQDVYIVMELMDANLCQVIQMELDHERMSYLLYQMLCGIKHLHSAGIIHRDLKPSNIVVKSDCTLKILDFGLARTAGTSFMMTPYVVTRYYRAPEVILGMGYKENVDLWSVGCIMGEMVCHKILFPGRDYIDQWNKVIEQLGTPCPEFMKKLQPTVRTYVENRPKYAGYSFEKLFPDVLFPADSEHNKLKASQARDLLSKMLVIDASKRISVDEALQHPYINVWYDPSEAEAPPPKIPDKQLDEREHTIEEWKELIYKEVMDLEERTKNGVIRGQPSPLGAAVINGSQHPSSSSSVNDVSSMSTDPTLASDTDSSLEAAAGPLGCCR
Procedure: as §1

[3] = molecular target: T3, TEC (Homo sapiens, UniProt P42680)
T3 construct: endogenous in cells; host or cells: K562 cell lysate
T3 sequence (P42680 1-631): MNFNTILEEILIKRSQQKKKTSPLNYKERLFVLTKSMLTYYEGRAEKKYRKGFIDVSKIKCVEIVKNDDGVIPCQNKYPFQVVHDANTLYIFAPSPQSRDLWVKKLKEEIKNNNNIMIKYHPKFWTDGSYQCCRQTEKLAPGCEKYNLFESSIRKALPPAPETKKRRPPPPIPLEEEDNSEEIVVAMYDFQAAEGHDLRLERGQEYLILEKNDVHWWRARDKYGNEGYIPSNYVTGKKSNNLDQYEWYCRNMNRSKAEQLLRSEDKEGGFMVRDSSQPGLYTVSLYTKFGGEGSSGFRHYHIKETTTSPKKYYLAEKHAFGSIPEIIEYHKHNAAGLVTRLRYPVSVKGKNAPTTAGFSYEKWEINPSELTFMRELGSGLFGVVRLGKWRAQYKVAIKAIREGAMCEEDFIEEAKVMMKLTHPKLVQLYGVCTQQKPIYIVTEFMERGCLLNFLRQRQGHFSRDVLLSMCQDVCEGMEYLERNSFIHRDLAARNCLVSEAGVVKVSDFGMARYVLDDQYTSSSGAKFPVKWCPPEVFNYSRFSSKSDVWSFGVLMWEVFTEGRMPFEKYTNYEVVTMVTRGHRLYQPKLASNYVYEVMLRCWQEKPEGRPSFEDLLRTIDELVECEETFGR
Procedure: as §1

[4] = molecular target: T4, CSK (Homo sapiens, UniProt P41240);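 for 0.001 uM KAM: median log10 fold change of treatment over DMSO control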;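 for 0.01 uM KAM: median log10 fold change of treatment over DMSO control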;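 for 0.1 uM KAM: median log10 fold change of treatment over DMSO control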;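 for 1 uM KAM: median log10 fold change of treatment over DMSO control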;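 for 10 uM KAM: median log10 fold change of treatment over DMSO control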
T4 construct: endogenous in cells; host or cells: K562
T4 sequence (P41240 whole entry): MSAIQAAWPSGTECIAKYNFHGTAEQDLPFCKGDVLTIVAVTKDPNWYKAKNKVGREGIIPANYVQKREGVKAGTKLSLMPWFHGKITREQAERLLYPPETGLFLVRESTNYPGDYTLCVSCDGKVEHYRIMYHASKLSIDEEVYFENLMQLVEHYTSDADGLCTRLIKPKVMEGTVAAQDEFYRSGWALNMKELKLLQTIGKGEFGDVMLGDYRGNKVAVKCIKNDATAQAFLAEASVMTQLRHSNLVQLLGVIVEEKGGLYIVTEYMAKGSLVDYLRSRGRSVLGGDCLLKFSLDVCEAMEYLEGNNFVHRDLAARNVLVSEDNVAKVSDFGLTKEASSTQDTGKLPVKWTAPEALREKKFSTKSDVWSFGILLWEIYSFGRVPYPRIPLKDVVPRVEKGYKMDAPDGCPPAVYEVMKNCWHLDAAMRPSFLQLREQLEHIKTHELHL
Procedure: as §1

[5] = read-out: RB50 (the source's name)

N#CCc1ccc(Nc2nc(NCCCN)cc(Nc3cc(C4CC4)[nH]n3)n2)cc1 [KAM]
median Log10 fold change ([1]; 0.001 uM KAM): -0.02178
median Log10 fold change ([1]; 0.01 uM KAM): -0.02485
median Log10 fold change ([1]; 0.1 uM KAM): -0.1728
median Log10 fold change ([1]; 1 uM KAM): -0.239
median Log10 fold change ([1]; 10 uM KAM): -0.318
IC50 [1, 5]: 3390 nM
median Log10 fold change ([2]; 0.001 uM KAM): -0.03388
median Log10 fold change ([2]; 0.01 uM KAM): -0.03516
median Log10 fold change ([2]; 0.1 uM KAM): -0.1302
median Log10 fold change ([2]; 1 uM KAM): -0.2377
median Log10 fold change ([2]; 10 uM KAM): -0.3812
IC50 [2, 5]: 2350 nM
median Log10 fold change ([3]; 0.001 uM KAM): -0.06308
median Log10 fold change ([3]; 0.01 uM KAM): -0.04798
median Log10 fold change ([3]; 0.1 uM KAM): -0.155
median Log10 fold change ([3]; 1 uM KAM): -0.2973
median Log10 fold change ([3]; 10 uM KAM): -0.4239
IC50 [3, 5]: 1160 nM
IC50 ([4]; KAM 0.001-10 uM, read-out: RB50 (the source's name)): > 10000 nM
0.001 uM KAM ([4]; relative to 0 uM KAM = 0): 0.01067
0.01 uM KAM ([4]; relative to 0 uM KAM = 0): -0.02135
0.1 uM KAM ([4]; relative to 0 uM KAM = 0): 0.028
1 uM KAM ([4]; relative to 0 uM KAM = 0): -0.04258
10 uM KAM ([4]; relative to 0 uM KAM = 0): -0.03639
